Test results: patent US4861788A, “Antibacterial 1-normon-2-yl-heterocyclic compounds” (Beecham Group plc, priority 1983, dated 1989)
Values after ≈ are worked out from the molar mass of the structure shown. Like-named read-outs stand apart in the source and are kept apart here.

Key:
M. hyopneumoniae NB12 = experiment: MIC against Mycoplasma in vitro (Friis broth with agarose); assay type: cell-based; settings: Mesomycoplasma hyopneumoniae
M. hyopneumoniae HK (2) = experiment: as above; assay type: cell-based; settings: Mesomycoplasma hyopneumoniae, 144 h
M. hyopneumoniae MS 16 = experiment: as above; assay type: cell-based; settings: Mesomycoplasma hyopneumoniae, MS16, 144 h
[1] = test system: M. hyopneumoniae PW/C/210; experiment: as above; assay type: cell-based; settings: Mesomycoplasma hyopneumoniae, 144 h; M. hyopneumoniae PW/C/210; 6 days at 37° C; read-out: MIC
M. hyopneumoniae LABER = experiment: as above; assay type: cell-based; settings: Mesomycoplasma hyopneumoniae, 144 h
[2] = test system: M. hyopneumoniae ATCC 25095; experiment: as above; assay type: cell-based; settings: Mesomycoplasma hyopneumoniae, ATCC25095, 144 h
[3] = test system: M. hyopneumoniae NCTC 101101; experiment: as above; assay type: cell-based; settings: Mesomycoplasma hyopneumoniae, NCTC101101, 144 h
M. hyorhinis ATCC 25021 = experiment: as above; assay type: cell-based; settings: Mesomycoplasma hyorhinis, ATCC25021, 144 h; M. hyorhinis ATCC 25021; 6 days at 37° C; read-out: MIC
[4] = test system: M. hyosynoviae ATCC 25591; experiment: as above; assay type: cell-based; settings: 144 h
M. bovis NCTC 10131 = experiment: microbe, parasite or virus in culture; assay type: cell-based; settings: NCTC10131, 144 h
[5] = test system: M. bovigenitalium ATCC 14173; experiment: MIC against Mycoplasma in vitro (Friis broth with agarose); assay type: cell-based; settings: 144 h
M. dispar NCTC 10125 = experiment: as above; assay type: cell-based; settings: 144 h
E. coli NCTC 10418 = experiment: MIC against veterinary bacteria in vitro (Diagnostic Sensitivity Test Agar); settings: Escherichia coli, NCTC10418, 18 h
Description: (§1) The activity of the normonyl derivatives of the Examples against various veterinarily important bacteria, was assayed in vitro using two-fold serial dilutions in Diagnostic Sensitivity Test Agar inoculated with 10^4 organisms.

E. coli E1 = experiment: as above; settings: Escherichia coli, E1, 18 h
Description: as §1

S. dublin S7 = experiment: as above; settings: Salmonella enterica, S7, 18 h
Description: as §1

Bord. bronchiseptica B08 = experiment: as above; settings: Bordetella bronchiseptica, B08, 18 h
Description: as §1

Bord. bronchiseptica B09 = experiment: as above; settings: Bordetella bronchiseptica, B09, 18 h
Description: as §1

Past. multocida PA1 = experiment: as above; settings: Pasteurella multocida, PA1, 18 h
Description: as §1

Past. multocida PA2 = experiment: as above; settings: Pasteurella multocida, PA2, 18 h
Description: as §1

[6] = test system: Erysipelothrix rhusiopathiae NCTC 8163; experiment: as above; settings: NCTC8163, 18 h
Description: as §1

Strep. uberis SPU1 = experiment: as above; settings: Streptococcus uberis, SPU1, 18 h
Description: as §1

Strep. agalactiae SPA1 = experiment: as above; settings: Streptococcus agalactiae, SPA1, 18 h
Description: as §1

B. subtilis ATCC 6633 = experiment: as above; settings: Bacillus subtilis, ATCC6633, 18 h
Description: as §1

[7] = test system: Neisseria catarrhalis 1502; experiment: MIC against human bacteria in vitro (nutrient agar, chocolated horse blood); assay type: cell-based; settings: human; Neisseria catarrhalis 1502; 18 hours at 37° C; read-out: MIC
Procedure, shortened: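 In vitro agar-dilution testing: drug dilutions prepared in nutrient medium with chocolated horse blood (5%).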

[8] = 144 h, M. hyopneumoniae NB12, 6 days at 37° C, read-out: MIC
[9] = M. hyopneumoniae HK (2), 6 days at 37° C, read-out: MIC
[10] = M. hyopneumoniae MS 16, 6 days at 37° C, read-out: MIC
[11] = M. hyopneumoniae LABER, 6 days at 37° C, read-out: MIC
[12] = M. hyopneumoniae ATCC 25095, 6 days at 37° C, read-out: MIC
[13] = M. hyosynoviae ATCC 25591, 6 days at 37° C, read-out: MIC
[14] = M. bovigenitalium ATCC 14173, 6 days at 37° C, read-out: MIC
[15] = M. dispar NCTC 10125, 6 days at 37° C, read-out: MIC
[16] = M. hyopneumoniae NCTC 101101, 6 days at 37° C, read-out: MIC

Compound | MIC (M. hyopneumoniae MS 16; [10]) | MIC [1] | MIC (M. hyopneumoniae LABER; [11]) | MIC [2, 12] | MIC (M. hyorhinis ATCC 25021) | MIC [4, 13] | MIC (M. bovis NCTC 10131) | MIC [5, 14] | MIC (M. dispar NCTC 10125; [15]) | MIC (E. coli NCTC 10418) | MIC (E. coli E1) | MIC (S. dublin S7) | MIC (Bord. bronchiseptica B08) | MIC (Bord. bronchiseptica B09) | MIC (Past. multocida PA1) | MIC (Past. multocida PA2) | MIC [6] | MIC (Strep. uberis SPU1) | MIC (Strep. agalactiae SPA1) | MIC [3, 16] | other results
CSc1ccc(-c2nnc(C=C(C)CC3OCC(CC4OC4C(C)C(C)O)C(O)C3O)o2)cc1 (stereo not shown) [Example 3, 2-p-Methylthiophenyl-5-(1-normon-2-yl)-1,3,4-oxadiazole A] | 0.5 µg/mL (≈ 1.02 µM) | 0.5 µg/mL (≈ 1.02 µM) | 1 µg/mL (≈ 2.04 µM) | 1 µg/mL (≈ 2.04 µM) | 0.5 µg/mL (≈ 1.02 µM) | 2.5 µg/mL (≈ 5.1 µM) | 0.1 µg/mL (≈ 0.204 µM) | 0.5 µg/mL (≈ 1.02 µM) | 0.25 µg/mL (≈ 0.51 µM) | > 80 µg/mL | > 80 µg/mL | > 80 µg/mL | > 80 µg/mL | 5 µg/mL (≈ 10.2 µM) | 2.5 µg/mL (≈ 5.1 µM) | 2.5 µg/mL (≈ 5.1 µM) | 40 µg/mL (≈ 81.5 µM) | 2.5 µg/mL (≈ 5.1 µM) | 10 µg/mL (≈ 20.4 µM) |  | MIC (M. hyopneumoniae NB12; [8]): 1 µg/mL (≈ 2.04 µM); MIC (M. hyopneumoniae HK (2); [9]): 1 µg/mL (≈ 2.04 µM); MIC [3]: 1 µg/mL (≈ 2.04 µM)
CC(=Cc1nnc(-c2ccc(S(C)(=O)=O)cc2)o1)CC1OCC(CC2OC2C(C)C(C)O)C(O)C1O (stereo not shown) [Example 4, 2-p-Methylsulphonylphenyl-5-(1-normon-2-yl)-1,3,4-oxadiazole A] | 0.1 µg/mL (≈ 0.191 µM) | 0.1 µg/mL (≈ 0.191 µM) | 0.25 µg/mL (≈ 0.478 µM) | 0.25 µg/mL (≈ 0.478 µM) | 0.1 µg/mL (≈ 0.191 µM) | 1 µg/mL (≈ 1.91 µM) | 0.05 µg/mL (≈ 0.0957 µM) | 0.25 µg/mL (≈ 0.478 µM) |  | > 80 µg/mL | > 80 µg/mL | > 80 µg/mL | > 80 µg/mL | 10 µg/mL (≈ 19.1 µM) | 2.5 µg/mL (≈ 4.78 µM) | 1.25 µg/mL (≈ 2.39 µM) | 40 µg/mL (≈ 76.5 µM) | 2.5 µg/mL (≈ 4.78 µM) | 10 µg/mL (≈ 19.1 µM) | 0.5 µg/mL (≈ 0.957 µM) | MIC (M. hyopneumoniae NB12; [8]): 0.25 µg/mL (≈ 0.478 µM); MIC (M. hyopneumoniae HK (2); [9]): 0.25 µg/mL (≈ 0.478 µM); MIC (B. subtilis ATCC 6633): 5 µg/mL (≈ 9.57 µM)
CC(=Cc1nnc(-c2cccnc2)o1)CC1OCC(CC2OC2C(C)C(C)O)C(O)C1O (stereo not shown) [Example 5, 2-(1-Normon-2-yl)-5-(3-pyridyl)-1,3,4-oxadiazole A] | 1 µg/mL (≈ 2.24 µM) | 1 µg/mL (≈ 2.24 µM) | 1 µg/mL (≈ 2.24 µM) | 1 µg/mL (≈ 2.24 µM) | 1 µg/mL (≈ 2.24 µM) | 1 µg/mL (≈ 2.24 µM) | 0.025 µg/mL (≈ 0.0561 µM) | 0.25 µg/mL (≈ 0.561 µM) | 0.5 µg/mL (≈ 1.12 µM) | > 80 µg/mL | > 80 µg/mL | > 80 µg/mL | > 80 µg/mL | 20 µg/mL (≈ 44.9 µM) | 1.25 µg/mL (≈ 2.81 µM) | 1.25 µg/mL (≈ 2.81 µM) | 80 µg/mL (≈ 180 µM) | 2.5 µg/mL (≈ 5.61 µM) | 20 µg/mL (≈ 44.9 µM) | 2.5 µg/mL (≈ 5.61 µM) | MIC (M. hyopneumoniae NB12; NB12, 144 h): 2.5 µg/mL (≈ 5.61 µM); MIC (B. subtilis ATCC 6633): 2.5 µg/mL (≈ 5.61 µM)
CC(=Cc1nnc(-c2cccs2)o1)CC1OCC(CC2OC2C(C)C(C)O)C(O)C1O (stereo not shown) [Example 6, 2-(1-Normon-2-yl)-5-(2-thienyl)-1,3,4-oxadiazole A] |  |  |  |  | 1 µg/mL (≈ 2.22 µM) |  | 0.05 µg/mL (≈ 0.111 µM) | 0.25 µg/mL (≈ 0.555 µM) | 1 µg/mL (≈ 2.22 µM) | > 80 µg/mL | > 80 µg/mL | > 80 µg/mL | > 80 µg/mL | 80 µg/mL (≈ 178 µM) | 2.5 µg/mL (≈ 5.55 µM) |  | 80 µg/mL (≈ 178 µM) | 5 µg/mL (≈ 11.1 µM) | 40 µg/mL (≈ 88.8 µM) |  | MIC (M. hyopneumoniae HK (2)): 5 µg/mL (≈ 11.1 µM); MIC (M. hyopneumoniae MS 16): 2.5 µg/mL (≈ 5.55 µM); MIC (M. hyopneumoniae LABER): 2.5 µg/mL (≈ 5.55 µM); MIC [2]: 2.5 µg/mL (≈ 5.55 µM); MIC [3]: 5 µg/mL (≈ 11.1 µM); MIC [4]: 2.5 µg/mL (≈ 5.55 µM)
CC(=Cc1nnc(-c2ccncc2)o1)CC1OCC(CC2OC2C(C)C(C)O)C(O)C1O (stereo not shown) [Example 7, 2-(1-Normon-2-yl)-5-(4-pyridyl)-1,3,4-oxadiazole A] |  |  |  |  | 0.5 µg/mL (≈ 1.12 µM) | 0.5 µg/mL (≈ 1.12 µM) | 0.025 µg/mL (≈ 0.0561 µM) |  |  | > 80 µg/mL | > 80 µg/mL | > 80 µg/mL | > 80 µg/mL | 20 µg/mL (≈ 44.9 µM) | 2.5 µg/mL (≈ 5.61 µM) | 0.625 µg/mL (≈ 1.4 µM) | 80 µg/mL (≈ 180 µM) | 2.5 µg/mL (≈ 5.61 µM) | 20 µg/mL (≈ 44.9 µM) | 2.5 µg/mL (≈ 5.61 µM) | MIC [5]: 0.25 µg/mL (≈ 0.561 µM); MIC (M. dispar NCTC 10125): 0.25 µg/mL (≈ 0.561 µM); MIC [7]: 0.25 µg/mL (≈ 0.561 µM); MIC (B. subtilis ATCC 6633): 2.5 µg/mL (≈ 5.61 µM)
